Results reported in PMC7270110, “Labeled oxytocin administered via the intranasal route reaches the brain in rhesus macaques” (Nature Communications, 2020).

Assays:
[1] = Plasma concentration of endogenous d0OT by LC-MS/MS; format: in vivo, rhesus macaques (Macaca mulatta); conditions: LLOQ 10 pg/ml, MDL 4 pg/ml
Method: The six monkeys were dosed once a week, for 4 consecutive weeks, with each DOSE–ROUTE condition of d5OT (40 IU IN, 40 IU IV, 80 IU IN, or 80 IU IV). Each DOSE–ROUTE condition was assigned using a Latin square randomization (Table 4). Sessions were separated by at least 6 days. During each session, CSF (750 µl) and blood (5 ml) samples were drawn immediately prior to (T = 0) and following (T = 60 and 120 min) each administration of d5OT.
Chemicals: An unlabeled standard for d0OT and deuterated standard for d5OT were purchased from Sigma-Aldrich (St. Louis, MO); d10OT was purchased for use as an internal standard through a custom order from Cayman Chemical (Ann Arbor, MI). All other reagents were commercially available, and we purchased LC or MS grade chemicals when available. Plasma and CSF sample preparation for LC–MS/MS analysis. […]
Solid-phase extraction (SPE) columns (Strata-X-Drug B, 60 mg/6 ml, Phenomenex, Torrance, CA) were conditioned prior to use by adding 2 ml of methanol, followed by 2 ml of water, and 2 ml of 0.2 M ammonium acetate (pH 3.0) in water; each was allowed to flow through by gravity before the next was added. […] After a 15 min incubation at 4 °C, plates were filtered into microtiter plates (Shimadzu, Kyoto, Japan) using a positive pressure manifold (8 min at 5 psi, followed by 15 s at 15 psi; Biotage, Uppsala, Sweden), and analyzed. […]

[2] = 60 min, previous study, cited from earlier work
Method: This study has several limitations. The limit of quantification (100 pg/ml) and between subject variability for d5OT precluded comparisons of CSF concentrations of d5OT across routes of administration (IN vs. IV), or across time (60 vs. 120 min), for a given route. […] For example, mean plasma concentration of d5OT at 60 min in the IV condition was 1992 ± 476 pg/ml in the present study and 3306 ± 1162 pg/ml in the previous st ...

SMILES: CC[C@H](C)[C@@H]1NC(=O)[C@H](Cc2ccc(O)cc2)NC(=O)[C@@H](N)CSSC[C@@H](C(=O)N2CCC[C@H]2C(=O)N[C@@H](CC(C)C)C(=O)NCC(N)=O)NC(=O)[C@H](CC(N)=O)NC(=O)[C@H](CCC(N)=O)NC1=O [OT, oxytocin]
- d0OT in plasma [1]: not detected

SMILES: CC[C@H](C)[C@@H]1NC(=O)[C@H](Cc2ccc(O)cc2)NC(=O)[C@@H](N)CSSC[C@@H](C(=O)N2CCC[C@H]2C(=O)N[C@@H](CC(C)C)C(=O)NCC(N)=O)NC(=O)[C@H](CC(N)=O)NC(=O)[C@H](CCC(N)=O)NC1=O [d5OT]
- Plasma d5OT ([2]; 80 IU IN condition): 615 ± 474 pg/mL
- Mean plasma concentration of d5OT ([2]; IV condition): 3.306 ± 1.162 ng/mL
